Test results published in patent US20240218022A1, “ANTI-VISTA MACROCYCLIC PEPTIDES AND COMPOSITIONS” (BRISTOL-MYERS SQUIBB COMPANY, priority 2022, published 2024).
Starred links: 1 amine or outer side, 2 acyl side, 3 side chain; linkers in the order of their positions; H or OH if unused. Positions of bridges follow the written chain, without caps; N, C: chain ends. Non-standard residues stand in square brackets, D forms with d. Residues, ends and D or L forms follow the SMILES beside them. Tyr(3-Cl) = N[C@@H](Cc1ccc(O)c(Cl)c1)C(=O)O; Phe(3-Me) = Cc1cccc(C[C@H](N)C(=O)O)c1; γGlu = O=C(O)[C@H](CCC(=O)[*:2])N[*:1]; 2Nal = N[C@@H](Cc1ccc2ccccc2c1)C(=O)O; βAsp = O=C(O)[C@H](CC(=O)[*:2])N[*:1]; Ahp(2) = CCCCC[C@H](N)C(=O)O; NMeNle = CCCC[C@H](NC)C(=O)O; Tle = CC(C)(C)[C@H](N)C(=O)O; NHexGly = CCCCCCNCC(=O)O; Nle = CCCC[C@H](N)C(=O)O; Orn = NCCC[C@H](N)C(=O)O; Aun = NCCCCCCCCCCC(=O)O; AEEA = NCCOCCOCC(=O)O

Target: T1, mouse VISTA (mVISTA) (Mus musculus, UniProt Q9D659)
T1 construct: expressed in transfected cells; host or cells: Human embryonic kidney 293T cells
T1 sequence (Q9D659 33-308): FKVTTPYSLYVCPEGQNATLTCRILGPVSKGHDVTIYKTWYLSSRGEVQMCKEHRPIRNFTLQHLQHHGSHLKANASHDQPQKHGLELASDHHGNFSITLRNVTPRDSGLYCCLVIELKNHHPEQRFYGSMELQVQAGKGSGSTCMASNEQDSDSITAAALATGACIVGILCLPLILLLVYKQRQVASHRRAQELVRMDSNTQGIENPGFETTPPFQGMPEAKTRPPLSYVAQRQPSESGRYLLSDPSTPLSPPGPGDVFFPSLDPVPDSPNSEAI
Assay: Cell-Based Binding High-Content Assay For mVISTA (HC CBA mVISTA)
Conditions: cell-based binding high-content assay; read-out: HC CBA mVISTA IC50
Summary of the method: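 Read-out: Alexa 647–streptavidin signal imaged on fixed, Hoechst-stained mVISTA-293T cells, with IC50 taken from a four-parameter logistic curve. Compounds competed with 2 nM biotinylated peptide for 30 min at room temperature, tested under both no-wash and wash (1 h compound, media exchange, 1 h) formats.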

IC50 [nM] | SMILES
18 | CCCCCCN1CC(=O)N[C@@H](Cc2ccc(O)cc2)C(=O)N[C@@H](CCCC)C(=O)N[C@@H](CC(N)=O)C(=O)N[C@@H](CCCNC(=N)N)C(=O)N(C)[C@@H](CCCC)C(=O)N[C@@H](CCCCC)C(=O)N2CCC[C@H]2C(=O)N[C@@H](C(C)(C)C)C(=O)N[C@@H](CO)C(=O)N[C@H](C(=O)NCC(=O)NCCOCCOCC(=O)N[C@@H](CCC(=O)NCCOCCOCC(=O)NCCCCCCCCCCC(=O)O)C(=O)O)CSCC(=O)N[C@@H](Cc2ccccc2)C(=O)N[C@@H](Cc2cccc(C)c2)C(=O)N[C@@H](CC(=O)O)C1=O [compound 2330] ({CH2CO}-F[Phe(3-Me)]D[NHexGly]Y[Nle]NR[NMeNle][Ahp(2)]P[Tle]SCG[AEEA][γGlu][AEEA][Aun]-OH; thioether N-14)
46.8 | CCCCCCN1CC(=O)N[C@@H](Cc2ccc(O)cc2)C(=O)N[C@@H](CCCC)C(=O)N[C@@H](CC(N)=O)C(=O)N[C@@H](CCCNC(=N)N)C(=O)N(C)[C@@H](CCCC)C(=O)N[C@@H](CCCCC)C(=O)N2CCC[C@H]2C(=O)N[C@@H](C(C)(C)C)C(=O)N[C@@H](CO)C(=O)N[C@H](C(=O)NCC(=O)NCCOCCOCC(=O)N[C@@H](CCC(=O)NCCOCCOCC(=O)NCCCCCCCCCCC(=O)O)C(=O)O)CSCC(=O)N[C@@H](Cc2ccc3ccccc3c2)C(=O)N[C@@H](Cc2ccc(O)cc2)C(=O)N[C@@H](CC(=O)O)C1=O [compound 2333] ({CH2CO}-[2Nal]YD[NHexGly]Y[Nle]NR[NMeNle][Ahp(2)]P[Tle]SCG[AEEA][γGlu][AEEA][Aun]-OH; thioether N-14)
24 | CCCCCCN1CC(=O)N[C@@H](Cc2ccc(O)c(Cl)c2)C(=O)N[C@@H](CC(C)C)C(=O)N[C@@H](CC(N)=O)C(=O)N[C@@H](CCCN)C(=O)N(C)[C@@H](CCCC)C(=O)N[C@@H](CCCCC)C(=O)N2CCC[C@H]2C(=O)N[C@@H](C(C)(C)C)C(=O)N[C@@H](CO)C(=O)N[C@H](C(=O)N[C@@H](CC(=O)NCCOCCOCC(=O)N[C@@H](CC(=O)O)C(=O)NCCOCCOCC(=O)NCCCCCCCCCCC(=O)O)C(=O)O)CSCC(=O)N[C@@H](Cc2ccccc2)C(=O)N[C@@H](Cc2ccc(O)cc2)C(=O)N[C@@H](CC(=O)O)C1=O [compound 2336] ({CH2CO}-FYD[NHexGly][Tyr(3-Cl)]LN[Orn][NMeNle][Ahp(2)]P[Tle]SC[βAsp][AEEA]D[AEEA][Aun]-OH; thioether N-14)
